From patent US20090270379A1, “QUINOLONE DERIVATIVES USEFUL AS ANTIBACTERIAL AGENTS” (priority 2008, published 2009)
Values after ≈ are worked out from the molar mass of the structure shown.

Key:
Type in all cases: cell-based
[1] = system: strain C, fluoroquinolone-resistant clinical isolate of Streptococcus pneumoniae; experiment: In vitro antibacterial activity (MIC), microdilution broth method, strain C; conditions: read-out: MIC (μg/mL) C
Protocol: (§1) Minimal inhibitory concentration (MIC) is an indicator of in vitro antibacterial activity. […] The in vitro antimicrobial activity of representative compounds of the present invention was determined by the microdilution broth method following the test method from the National Committee for Clinical Laboratory Standards (NCCLS). This method is described in the NCCLS Document M7-A4, Vol. 17, No. 2, “Methods for Dilution Antimicrobial Susceptibility Test for Bacteria that Grow Aerobically—Fourth Edition”, which is incorporated herein by reference.
(§2) In this method two-fold serial dilutions of drug in cation adjusted Mueller-Hinton broth were added to wells in microdilution trays. The test organisms were prepared by adjusting the turbidity of actively growing broth cultures so that the final concentration of test organism after it is added to the wells was approximately 5×10^4 CFU/well. Following inoculation of the microdilution trays, the trays were incubated at 35° C. for 16-20 hours and then read. The amount of growth in the wells containing the test compound was compared with the amount of growth in the growth-control wells (no test compound) used in each tray.
(§3) Representative compounds of the present invention were tested against a variety of pathogenic bacteria with results as listed in Table 3, below.

[2] = system: Streptococcus pneumoniae ATCC 49619; experiment: In vitro antibacterial activity (MIC), microdilution broth method, strain E; conditions: ATCC49619, 35° C., 16-20 hours
Protocol: as §1, §2, §3

[3] = system: Staphylococcus aureus OC4172; experiment: In vitro antibacterial activity (MIC), microdilution broth method, strain A; conditions: cation adjusted Mueller-Hinton broth, 35° C., 16-20 hours
Protocol: as §1, §2, §3

[4] = system: strain B, fluoroquinolone-resistant clinical isolate of Streptococcus pneumoniae; experiment: In vitro antibacterial activity (MIC), microdilution broth method, strain B; conditions: read-out: MIC (μg/mL) B
Protocol: as §1, §2, §3

[5] = system: strain D, fluoroquinolone-resistant clinical isolate of Streptococcus pneumoniae; experiment: In vitro antibacterial activity (MIC), microdilution broth method, strain D; conditions: read-out: MIC (μg/mL) D
Protocol: as §1, §2, §3

## C[C@H]1NCCn2cc(-c3cc4c(cc3F)c(=O)c(C(=O)O)cn4C3CC3)cc21 [Compound 22, 1-Cyclopropyl-6-fluoro-7-(1R-methyl-1,2,3,4-tetrahydro-pyrrolo[1,2-a]pyrazin-7-yl)-4-oxo-1,4-dihydro-quinoline-3-carboxylic acid]
[1]
  MIC: 16 µg/mL (≈ 41.9 µM)
[2]
  MIC: 1 µg/mL (≈ 2.62 µM)
[3]
  MIC: 0.25 µg/mL (≈ 0.655 µM)
[4]
  MIC: 4 µg/mL (≈ 10.5 µM)
[5]
  MIC: > 16 µg/mL

## COc1c(-c2cc3n(c2)CCNC3)c(F)cc2c(=O)c(C(=O)O)cn(C3CC3)c12 [Compound 34, 1-Cyclopropyl-6-fluoro-8-methoxy-4-oxo-7-(1,2,3,4-tetrahydro-pyrrolo[1,2-a]pyrazin-7-yl)-1,4-dihydro-quinoline-3-carboxylic acid]
[1]
  MIC: 1 µg/mL (≈ 2.52 µM)
[2]
  MIC: 0.25 µg/mL (≈ 0.629 µM)
[3]
  MIC: 0.03 µg/mL (≈ 0.0755 µM)
[4]
  MIC: 1 µg/mL (≈ 2.52 µM)
[5]
  MIC: 1 µg/mL (≈ 2.52 µM)

## C[C@@H]1NCCn2cc(-c3nc4c(cc3F)c(=O)c(C(=O)O)cn4C3CC3)cc21 [Compound 26, 1-Cyclopropyl-6-fluoro-7-(1S-methyl-1,2,3,4-tetrahydro-pyrrolo[1,2-a]pyrazin-7-yl)-4-oxo-1,4-dihydro-[1,8]naphthyridine-3-carboxylic acid]
[1]
  MIC: 8 µg/mL (≈ 20.9 µM)
[2]
  MIC: 1 µg/mL (≈ 2.62 µM)
[3]
  MIC: 0.5 µg/mL (≈ 1.31 µM)
[4]
  MIC: 8 µg/mL (≈ 20.9 µM)
[5]
  MIC: 16 µg/mL (≈ 41.8 µM)

## C[C@@H]1NCCn2cc(-c3cc4c(cc3F)c(=O)c(C(=O)O)cn4C3CC3)cc21 [Compound 21, 1-Cyclopropyl-6-fluoro-7-(1S-methyl-1,2,3,4-tetrahydro-pyrrolo[1,2-a]pyrazin-7-yl)-4-oxo-1,4-dihydro-quinoline-3-carboxylic acid]
[1]
  MIC: 16 µg/mL (≈ 41.9 µM)
[2]
  MIC: 1 µg/mL (≈ 2.62 µM)
[3]
  MIC: 0.25 µg/mL (≈ 0.655 µM)
[4]
  MIC: 4 µg/mL (≈ 10.5 µM)
[5]
  MIC: 16 µg/mL (≈ 41.9 µM)

## COc1c(-c2cc3n(c2)C[C@H](C)N(C)C3)c(F)cc2c(=O)c(C(=O)O)cn(C3CC3)c12 [Compound 13, 1-Cyclopropyl-7-(2,3S-dimethyl-1,2,3,4-tetrahydro-pyrrolo[1,2-a]pyrazin-7-yl)-6-fluoro-8-methoxy-4-oxo-1,4-dihydro-quinoline-3-carboxylic acid]
[1]
  MIC: 4 µg/mL (≈ 9.4 µM)
[2]
  MIC: 0.5 µg/mL (≈ 1.18 µM)
[3]
  MIC: 0.12 µg/mL (≈ 0.282 µM)
[4]
  MIC: 0.5 µg/mL (≈ 1.18 µM)
[5]
  MIC: 8 µg/mL (≈ 18.8 µM)

## O=C(O)c1cn(C2CC2)c2c(OC(F)F)c(-c3cc4n(c3)CCNC4)ccc2c1=O [Compound 1, 1-Cyclopropyl-8-difluoromethoxy-4-oxo-7-(1,2,3,4-tetrahydro-pyrrolo[1,2-a]pyrazin-7-yl)-1,4-dihydro-quinoline-3-carboxylic acid]
[1]
  MIC: 8 µg/mL (≈ 19.3 µM)
[2]
  MIC: 0.5 µg/mL (≈ 1.2 µM)
[3]
  MIC: 0.06 µg/mL (≈ 0.144 µM)
[4]
  MIC: 1 µg/mL (≈ 2.41 µM)
[5]
  MIC: 8 µg/mL (≈ 19.3 µM)
